Data on 25 compounds can be found in publication PMC8774223, “Comparison of Antiplatelet Effects of Phenol Derivatives in Humans” (Biomolecules, 2022).

Series [1] relates to platelet aggregation triggered by AA. The series can be described thus: Arachidonic acid (AA)-induced platelet aggregation, whole blood aggregometry. The format is cell-based, human. The settings on record: for IC50: Platelet. As to the method:
Blood from 20 non-smoking, young (aged from 22 to 45 years, median 27), healthy volunteers was collected by venipuncture into plastic tubes containing heparin sodium (170 IU/10 mL; Zentiva, Prague, Czech Republic). No medication had been taken by volunteers 14 days prior blood collection and no alcohol had been consumed 12 h before the blood draw.
A total of 300 µL of whole blood was diluted with the same volume of 0.9 % sodium chloride (B.Braun, Melsungen, Germany) preheated to 37 °C and incubated with 5 µL of a tested compound dissolved in DMSO (Penta, Prague, Czech Republic) at a final concentration of 0.8% for 3 min at 37 °C. Platelet aggregation was then induced by addition of collagen (Diagnostica a.s., Czech Republic), arachidonic acid (AA) or Thrombin Receptor Activating Peptide (TRAP) (Roche Holding AG, Basel, Switzerland) and monitored for 6 min. The dose of inducer was initially set to the minimal concentration which caused maximal aggregation. The second calibration was carried out by use of standards, 4-methylcatechol in the case of AA- and collagen-triggered aggregation (Sigma-Aldrich) or vorapaxar for thrombin aggregation (Selleck Chemicals GmbH, Munich, Germany). […] For comparison, also the clinically used standard ASA was employed.

In series [2] the test system is platelet aggregation induced by collagen. The series can be described thus: Collagen-induced platelet aggregation, whole blood aggregometry. The format is cell-based, human. The note with it: for IC25: Platelet, human whole blood, read-out: IC25 (Mean ± SD, μM) on Collagen-Induced Platelet Aggregation; for Effect on collagen-induced aggregation compared with ASA: comparison of 95% confidence intervals of fitted curves / IC25. As to the method: Blood from 20 non-smoking, young (aged from 22 to 45 years, median 27), healthy volunteers was collected by venipuncture into plastic tubes containing heparin sodium (170 IU/10 mL; Zentiva, Prague, Czech Republic). No medication had been taken by volunteers 14 days prior blood collection and no alcohol had been consumed 12 h before the blood draw. The protocol was approved by the Ethics Committee of the Faculty of Pharmacy, Charles University on May 31, 2019.
A total of 300 µL of whole blood was diluted with the same volume of 0.9 % sodium chloride (B.Braun, Melsungen, Germany) preheated to 37 °C and incubated with 5 µL of a tested compound dissolved in DMSO (Penta, Prague, Czech Republic) at a final concentration of 0.8% for 3 min at 37 °C. Platelet aggregation was then induced by addition of collagen (Diagnostica a.s., Czech Republic), arachidonic acid (AA) or Thrombin Receptor Activating Peptide (TRAP) (Roche Holding AG, Basel, Switzerland) and monitored for 6 min. The dose of inducer was initially set to the minimal concentration which caused maximal aggregation. The second calibration was carried out by use of standards, 4-methylcatechol in the case of AA- and collagen-triggered aggregation (Sigma-Aldrich) or vorapaxar for thrombin aggregation (Selleck Chemicals GmbH, Munich, Germany). The final concentrations of inducers were in the range of 0.16–2.42 µg/mL for collagen, 25–196 µM for AA and 0.8–9.8 µM for TRAP. For comparison, also the clinically used standard ASA was employed.

In series [3] the test system is MCF-7/S0.5 human breast cancer cell line. Kind of series: CellTiter 96 AQueous One Solution Cell Proliferation Assay. Format: cell-based. The note with it: 48 h. As to the method: MCF-7/S0.5 human breast cancer cell line adapted to low-sera conditions (ECACC, Porton Down, Salisbury, UK) was used. Cells were maintained at 37 °C and 5% CO2 and were passaged once a week. Dulbecco’s Modified Eagle Medium/Nutrient Mixture F-12 (DMEM/F-12; Thermo Fisher, Waltham, MA, USA) supplemented with FBS Charcoal Stripped, antibiotics (penicillin/streptomycin) and insulin, according to cell provider instructions, was used as the growth medium. Cells were used in passages between 7 and 12.
Cell viability assay was performed using CellTiter 96® AQueous One Solution Cell Proliferation Assay (Promega, Madison, WI, USA). MCF-7 cells were seeded at a density of 80 × 10^3 cells per well in a 96-well plate. Cells were exposed to the compounds and incubated at 37 °C with CO2 5% for 48 h prior tetrazolium reagent [3-(4,5-dimethylthiazol-2-yl)-5-(3-carboxymethoxyphenyl)-2-(4-sulfophenyl)-2H-tetrazolium] addition (20 µL/well). DMSO at a final concentration of 0.1% (as it is not associated with toxicity) was used as a negative control (set to 100% viability), and sodium dodecyl sulfate (SDS 10%) as positive control. After incubation period CellTiter reagent was added to the cells and further incubated for 3 h. After this time, absorbance was recorded at a wavelength of 490 nm by use of a microplate reader (Hidex Oy, Turku, Finland). All samples were performed in triplicates and repeated at least three times.

For series [4], the system named is thrombin pathway. The settings on record: cited from earlier work.
The subject of series [5] is platelet aggregation. The settings on record: cited from earlier work.
Series [6] has as its system three different cell lines. Also on record: method as in PMID 26885667. The note with it: 30 μM; cited from earlier work.
Series [7] relates to bacterial colonies. Details: method as in PMID 11351422. The settings on record: cited from earlier work.
The subject of series [8] is plasmids. The settings on record: 50 μM, without redox-active metals; cited from earlier work.
Series [9] relates to Nrf2. The settings on record: many cell lines; effect observed even at 5 μM; cited from earlier work.
The test system of series [10] is encephalomyocarditis virus. Also on record: method as in PMID 35558500. The note with it: cited from earlier work; for Antiviral potency relative to catechol: lowest tested concentration 0.4 mg/mL (approximately 3 mM).
Details of series [11]: method as in PMID 25571923. The settings on record: humans, on average; cited from earlier work.
The mark [12] stands for this setting: human whole blood, class assigned by colour of the drawn structure, read-out: IC50 class, colour key of Figure 3.
The mark [13] stands for this setting: human whole blood, read-out: IC50 (Mean ± SD, μM) on Arachidonic Acid-induced Platelet Aggregation.
The mark [14] stands for this setting: Homo sapiens, read-out: IC50 class, colour key of Figure 3.

In brackets after ≈: the same amount, converted by molar mass. Read-outs that look alike come from different tables or passages of the source. Some results are limits rather than exact numbers.

Turning to `Oc1cccc(F)c1O` [3-fluorocatechol], the values for the IC50 in series [1] (setting [12]) and in series [1] (setting [13]) were < 3 µM and 1.74 ± 0.17 µM, respectively.

Regarding `Nc1ccccc1O` [2-aminophenol], the IC50 in series [1] (setting [13]) was 6.65 ± 1.06 µM.

With `Oc1cc(Cl)c(Cl)cc1O` [4,5-dichlorocatechol], the IC25 in series [2] was 9.86 ± 15.1 µM. In addition, the IC50 in series [1] (setting [13]) was found to be 3.35 ± 0.92 µM. In addition, the “Cell proliferation / viability, MCF-7/S0.5” value in series [3] (10 μM) is listed as “not toxic”; in series [3] (100 μM), “decreased cell proliferation”; in series [3] (100 μM, listed as 4,5-dichlorcatechol), “blocked cell proliferation”.

With `Nc1ccc(O)c(O)c1` [4-aminocatechol], the IC50 in series [1] (setting [12]) is > 10 µM; in series [1] (setting [13]), ~21 µM.

Regarding `Oc1ccc(F)cc1O` [4-fluorocatechol], the IC25 in [2] is 4.72 ± 0.28 µM. Also, in series [2], the “Effect on collagen-induced aggregation compared with ASA” value (“Effect … compared with ASA” for short) is “significantly more efficient than ASA”. The IC50 in series [1] (setting [12]) was < 3 µM; in [1] (setting [13]) it was 1.82 ± 0.21 µM.

As for `Cc1ccccc1O` [o-cresol], in [4], the “Effect on thrombin pathway” value is given as “no effect”. Moreover, in series [5], the “Inhibition of platelet aggregation” value is on record as “inhibited platelet aggregation”. In addition, the IC50 is > 10 µM in [1] (setting [14]) and 12 ± 5.55 µM in [1] (setting [13]).

`C=Cc1ccc(O)c(O)c1` [4-vinylcatechol]: the “Toxicity to cell lines” value in series [6] was “not toxic”.

For the compound `Oc1cc(Cl)cc(Cl)c1O` [3,5-dichlorocatechol], the “Formation of bacterial colonies” value in series [7] (10 μM) is “blocked the formation of bacterial colonies”. The Antibacterial activity result in [7] is listed as “Antibacterial activity was observed”. In addition, in series [8], the DNA damage entry is “no DNA damage was observed”. In addition, the IC50 in series [1] (setting [14]) was > 10 µM; in [1] (setting [13]), 13.5 ± 1.57 µM. Moreover, the entries for the “Cell proliferation / viability, MCF-7/S0.5” value in series [3] (10 μM) and in [3] (100 μM) were “not toxic” and “decreased cell proliferation”, respectively.

For the compound `CCc1ccc(O)c(O)c1` [4-ethylcatechol], in [2], the IC25 came out at 4.61 ± 1.16 µM and the “Effect … compared with ASA” value was “significantly more efficient than ASA”. In addition, the “Activation of Nrf2” value in series [9] is “clearly confirmed”. For the same compound, the “Toxicity to cell lines” value in series [6] is recorded as “not toxic”. Further, the IC50 in series [1] (setting [12]) was < 3 µM. The IC50 in series [1] (setting [13]) is 1.29 ± 0.14 µM. For the same compound, the “Antiviral potency relative to catechol” value in series [10] is “more potent”.

For `O=S(=O)(O)Oc1ccccc1O` [pyrocatechol-sulfate], the Plasma levels in series [11] was 12 µM.

Consider `Cc1cccc(O)c1O` [3-methylcatechol], for which the IC25 in [2] stood at 7.15 ± 6.41 µM. For the same compound, the IC50 in series [1] (setting [12]) was < 3 µM; in series [1] (setting [13]), 1.61 ± 0.17 µM.

Take `COc1ccc(C)c(OC)c1` [2,4-dimethoxytoluene]: the IC50 is > 100 µM in series [1] (setting [12]) and ~32 µM in [1] (setting [13]).

`CC(=O)Oc1ccccc1C(=O)O` [ASA, acetylsalicylic acid, reference compound]: in series [2], the IC25 was determined as 26.9 ± 2.25 µM.

Take `COc1cc(C)ccc1O` [2-methoxy-4-methylphenol]: in [2], the IC25 worked out at 11.5 ± 9.05 µM and the “Effect … compared with ASA” value is given as “significantly more efficient than ASA”. Further, in series [1] (setting [12]), the IC50 was < 3 µM. Further, the IC50 in [1] (setting [13]) turned out to be 2.57 ± 2.24 µM.

Turning to `CC(C)(C)c1ccc(O)c(O)c1` [4-tert-butylcatechol], the IC50 in series [1] (setting [13]) was 7.24 ± 3.75 µM.

For the compound `Oc1ccc(Cl)cc1O` [4-chlorocatechol], the Antibacterial activity result in series [7] is “Antibacterial activity was observed”. The DNA damage entry in [8] is recorded as “no DNA damage was observed”. Besides, the IC50 in series [1] (setting [13]) worked out at 3.66 ± 0.29 µM.

Consider `COc1cccc(O)c1O` [3-methoxycatechol], for which the IC50 in [1] (setting [13]) came to 7.92 ± 0.74 µM. In series [10], the “Antiviral potency relative to catechol” value is “more potent”.

In the case of `CC(C)c1cccc(O)c1O` [3-isopropylcatechol], the IC25 in series [2] was found to be 12.9 ± 21.3 µM. Besides, the values for the IC50 in series [1] (setting [12]) and in series [1] (setting [13]) were < 3 µM and 2.28 ± 0.3 µM, respectively. The results for the “Cell proliferation / viability, MCF-7/S0.5” value in series [3] (10 μM) and in series [3] (100 μM) were “not toxic” and “decreased cell proliferation”, respectively.

For `COc1ccccc1OC` [1,2-dimethylcatechol, 1,2-dimethoxybenzene], the half-inhibitory concentration (IC50) is ~78 µM in series [1] (Homo sapiens, read-out: IC50 (Mean ± SD, μM) on Arachidonic Acid-induced Platelet Aggregation) and > 100 µM in series [1] (setting [14]). Moreover, the “Activity towards AA-induced aggregation (in words)” value in series [1] (human whole blood) is “inactive”.

For `Oc1ccccc1O` [pyrocatechol], in series [7], the Antibacterial activity result was “Antibacterial activity was observed”. In addition, the “Activation of Nrf2” value in series [9] is “clearly confirmed”. The “Toxicity to cell lines” value in series [6] was “not toxic”. Moreover, the IC50 is 4 ± 0.45 µM in series [1] (setting [13]) and 6000 µM in series [10] (read-out: IC50 antiviral activity). Moreover, in series [10], the IC50 antiviral activity was 670 µg/mL (≈ 6.08 mM).

Consider `Cc1ccccc1N` [o-toluidine], for which, in series [1] (setting [14]), the IC50 is > 100 µM. In addition, in series [1] (human whole blood), the “Activity towards AA-induced aggregation (in words)” value was “inactive or only weakly active”.

On to `Nc1cccc(O)c1O` [3-aminocatechol], for which the IC50 in series [1] (setting [13]) came to 3.82 ± 0.5 µM.

For the compound `Cc1ccc(O)c(O)c1` [4-methylcatechol, reference compound], in [4], the “Effect on thrombin pathway” value is on record as “no effect”. In addition, the IC25 in series [2] is 2.66 ± 2.21 µM. In addition, the “Antiplatelet potency relative to acetylsalicylic acid (ASA)” value in series [5] was “approximately ten times higher potency”. Besides, in series [6], the “Toxicity to cell lines” value was “not toxic”. Besides, the IC50 is < 3 µM in [1] (setting [12]) and 2.59 ± 0.17 µM in [1] (setting [13]).

`O=[N+]([O-])c1ccc(O)c(O)c1` [4-nitrocatechol]: the figures for the IC50 in [1] (setting [12]) and in series [1] (setting [13]) were > 10 µM and 13.3 ± 1.57 µM, respectively. Further, the “Cell proliferation / viability, MCF-7/S0.5” value in [3] (10 μM) was “not toxic”; in series [3] (100 μM) it was “decreased cell proliferation”.

Consider `CCc1ccc(O)cc1` [4-ethylphenol], for which, in [9], the “Activation of Nrf2” value was “inactive”.
